This note sets out measurements from patent publication US5654289A, “Disaccharide derivative” (Suntory Limited, priority 1993, dated 1997).

Read-outs that look alike come from different tables or passages of the source. Bounds are passed on as bounds.

Series [1] concerns BALB/c mouse spleen cells. The experiment in a line: Mitogenic activity (3H-thymidine incorporation into mouse spleen cells). A general note: Dividing cells build labelled thymidine or BrdU into new DNA.
The subject of series [2] is vesicular stomatitis virus (VSV). It counts as cell-based, vesicular stomatitis virus; mouse L929 cells.
Series [3] relates to rabbits. The experiment in a line: Pyrogenicity test. Conditions: i.v., rabbit, feverish = rise of 0.6° C. or more.
Method: In this test, rabbits were used and 5 ml/kg of the test compound diluted to a definite concentration with physiological saline was intravenously injected into each animal. Then the rectal temperature was measured. Rabbits showing an increase in the bodily temperature by 0.6° C. or more were referred to as feverish.
Series [4] concerns anti-BSA IgG antibody. The experiment in a line: Adjuvant activity (serum anti-BSA IgG by ELISA). It counts as in vivo, mouse (BALB/c). The following applies: 100 μg compound with 100 μg BSA in FIA, s.c., days 0 and 28; day 5 after booster; BSA alone = 1.00. (In general: An ELISA detects its analyte on a solid surface through an enzyme-linked reagent.)
Method: In this test, male BALB/c mice (each group having 6 animals) were used. On the days 0 and 28, 100 μg of bovine serum albumin (BSA) containing 100 μg of the compound of the present invention on the comparative compound or no such a compound was subcutaneously injected into each animal in the form of a water-in-oil type emulsion in Freund's incomplete adjuvant (FIA). On the day 5 following the booster, the level of anti-BSA IgG antibody formed in the serum was determined by the ELISA method. […] [formula]
Series [5] concerns BALB/c mouse spleen cells. The experiment in a line: Polyclonal B cell activation activity (ELISPOT). The following applies: 72 hours.
Series [6] deals with male C57BL mouse. The experiment in a line: Galactosamine-loaded lethal toxicity test. It counts as in vivo. Conditions: 16 mg D-galactosamine/HCl i.p., compound i.v., 24 hours. As for the experimental part: The galactosamine-loaded lethal toxicity was determined by using the following experimental system.
16 mg of D-galactosamine/HCl was intraperitoneally administered to a male C57BL mouse aged 8 weeks. Immediately thereafter, the compound of the present invention was intravenously injected into the animal and the conditions were observed after 24 hours.

Series [7] concerns TNF-α. The experiment in a line: Cytokine inducing activity: TNF-α (ELISA), human peripheral blood monocytes. It counts as cell-based. The following applies: 24 hours. As for the experimental part:
(§1) The cytokine inducing activity was tested by using an ELISA system for assaying TNF-α (manufactured by Amersham Japan) and another ELISA system for assaying IL-1β (manufactured by Otsuka Pharmaceutical Co., Ltd.). […] Then the cytokines in the culture supernatant were assayed by the ELISA method.

Series [8] has as its system IL-1β. The experiment in a line: Cytokine inducing activity: IL-1β (ELISA), human peripheral blood monocytes. It counts as cell-based. As for the experimental part: as §1
In series [9] the test system is IL-1 receptor antagonist (IL-1ra). The experiment in a line: IL-1 receptor antagonist (IL-1ra) production (ELISA), human peripheral blood monocytes. It counts as cell-based.
Series [10] concerns Moloney virus-induced lymphoma YAC-1. In words: NK (natural killer) activity of spleen cells from treated mice against YAC-1 (51Cr release). It counts as in vivo, mouse (BALB/c). As for the experimental part:
This test was carried out in the following manner. […] On the day 14, the spleen cells of the animal were collected. To the prepared spleen cells (1×10^6 cells/0.1 ml), target cells (Moloney virus-inducedlymphoma YAC-1; 2×10^4 cells/ml) labeled with ^51 Cr were added followed by the incubation for 4 hours. […] After the completion of the incubation, 0.1 ml of the culture supernatant was collected and the amount (radiation dose) of ^51 Cr liberated due to the damage in the target cells was measured. Then the NK activity (%) was calculated by substituting each value in accordance with the following formula. NK Activity (%)={(Radioactivity of test group-Radioactivity of minimum free control group)(cpm)/(Radioactivity maximum free control group-Radioactivity of minimum free control group)(cpm)}

In series [11] the test system is methylcholanthrene-induced fibrosarcoma (Meth A). The experiment in a line: Antitumor activity (macrophage cytostatic activity on Meth A fibrosarcoma). It counts as cell-based, mouse (BALB/c). As for the experimental part: This test was effected by examining a cytostatic activity on methylcholanthrene-induced fibrosarcoma (Meth A). Namely, adherent cells (macrophages) were collected from spleen cells of a BALB/c mouse. […] Then the ^3 H-thymidine-uptake suppression ratio was calculated by substituting the obtained values in accordance with the following formula and the result was expressed as the cytostatic activity on macrophages.
Cytostatic Activity (%)={1-(Radioactivity of macrophages and target cells-Radioactivity of macrophages alone)(cpm)/(Radioactivity of target cells along)}×100

Series [12] relates to Tachypleus tridentatus lysate. The following applies: Pregel reagent, gel formation.
Series [13] relates to male rabbit. The experiment in a line: Local Shwartzman reaction. It counts as in vivo. Conditions: 100 μg/site intradermal, elicitation with Salmonella minnesota LPS i.v. As for the experimental part: This test was carried out in the following manner. The test compound, which had been diluted to a definite concentration with 0.2 ml of physiological saline, was intradermally injected into a male rabbit. After 24 hours, 100 μg/ml/kg of Salmonella minnesota 9700 LPS-W (manufactured by Difco) was intravenously injected into the animal for elicitation. After 4 hours, intradermal hemorrhage was observed.

The mark [14] stands for this setting: Mus musculus, read-out: Mitogen activity, Stimulation Index.

Consider `CCCCCCCCCCCCCC(=O)OC(CCCCCCCCCCC)CC(=O)O[C@@H]1[C@@H](NC(=O)CC(CCCCCCCCCCC)OC(=O)CCCCCCCCCCC)[C@H](OC[C@H]2O[C@H](OP(=O)(O)O)[C@H](NC(=O)CC(O)CCCCCCCCCCC)[C@@H](OC(=O)CCCCCCCCCCCCC)[C@@H]2O)O[C@H](CO)[C@H]1OP(=O)(O)O` (stereo partly drawn) [Comparative compound 506, 6-O-[2-deoxy-2-(3-dodecanoyloxytetradecanoylamino)-3-O-(3-tetra-decanoyloxytetradecanoyl)-4-O-phosphono-β-D-glucopyranosyl]-2-deoxy-2-(3-hydroxytetradecanoylamino)-3-O-tetradecanoyl-1-O-phosphono-α-D-glucopyranose, reference compound], for which, in [1] (50 μg/ml), the “Mitogen activity, Stimulation Index” value worked out at 6.28. Moreover, in [2], the “Antiviral activity (reciprocal of the dilution ratio to the 1 mg/ml sample wherein L929 cells survived at a ratio of 50%)” value stood at 2.2. Besides, the Pyrogenicity result in series [3] (dose of 0.01 μg) is listed as “showed pyrogenicity”. The “Adjuvant activity, Stimulation Index” value in series [4] was 1.99. The “Polyclonal B cell activation activity, Stimulation Index” value in series [5] (10 μg per 2.5×10^6 cells) worked out at 15.7; in [5] (100 μg per 2.5×10^6 cells), 20.7. Besides, in [6], the “Galactosamine-loaded lethal toxicity, LD50” value was 0.0079 µg.

Consider `CCCCCCCCCCCCCCCC(=O)OC(CCCCCCCCCCCC(C)C)CC(=O)NC1C(OCC2OC(OP(=O)(O)O)C(NC(=O)CC(O)CCCCCCCCCCCC(C)C)C(O)C2O)OC(CO)C(O)C1O` (stereo not drawn) [Invention compound], for which the “activity of inducing the production of TNF-α” value in [7] is listed as “little activity”. In series [1] (setting [14]), the fold induction at 5 µg/mL is 4.17 and the fold induction at 50 µg/mL was determined as 7.46. For the same compound, the “suppression of the production of IL-1β induced by LPS originating in Escherichia coli” value in [8] (added simultaneously, 50 times as much as LPS) is on record as “suppressed the production of IL-1β”. Moreover, in series [8] (added simultaneously, 50 times as much as synthetic lipid A 506), the “suppression of the production of IL-1β induced by compound 506” value is “suppressed the production of IL-1β”. The “activity of inducing the production of IL-1β” value in series [8] (human peripheral blood monocytes, 24 hours) is on record as “little activity”. For the same compound, the “production of IL-1ra in the culture supernatant, compared with synthetic lipid A 506” value in series [9] is recorded as “in a larger amount than the synthetic lipid A 506 did”. In addition, the NK activity in series [10] (100 μg i.v. on days 0 and 7, spleen cells collected day 14, BALB/c mouse, YAC-1 targets, 4 hours) is given as 50.1%. Moreover, in series [10] (100 μg i.v. on days 0 and 7, in words), the “NK activity, comparison with synthetic lipid A 506” value is “comparable to the synthetic lipid A 506”. The “Antiviral activity (reciprocal of the dilution ratio to the 1 mg/ml sample wherein L929 cells survived at a ratio of 50%)” value in series [2] (VSV 100 TCID50/0.1 ml on L929 cells, 24 hours) stood at 4.9. At 10 µg/mL the inhibition in series [11] (24 h, 10 μg/ml, Meth A with mouse macrophages) was 58.6%. Moreover, 100 µg/mL produced 64% inhibition in [11] (24 h, 100 μg/ml, Meth A with mouse macrophages). The “Cytostatic activity, comparison with synthetic lipid A 506” value in series [11] (in words) was “comparable to that of the synthetic lipid A 506”. The Pyrogenicity entry in [3] (dose of 10 μg/kg) is listed as “showed no pyrogenicity”. Besides, in series [12], the “Limulus test, minimum effective dose relative to that of the synthetic lipid A 506” value is listed as 1,000 times. In series [4], the “Adjuvant activity, Stimulation Index” value amounted to 2.48. The “Polyclonal B cell activation activity, Stimulation Index” value in series [5] (10 μg per 2.5×10^6 cells) came to 22.0. Moreover, in [5] (100 μg per 2.5×10^6 cells), the “Polyclonal B cell activation activity, Stimulation Index” value was determined as 30.3. For the same compound, the “Galactosamine-loaded lethal toxicity, LD50” value in series [6] was above 10 µg. Also, in series [13], the “Local Shwartzman reaction, hemorrhage” value is listed as “no hemorrhage”.

As usually defined, the inhibition is how much of the control response was suppressed. A high value points to strong suppression.
